Where two headings read alike, the source gives them in different places.
How the values were obtained:
[1] = molecular target: T1, A1 adenosine receptors (Cavia porcellus, UniProt P47745); experiment: Antagonism of adenosine agonists in reducing force of contraction of guinea pig atrium (A1); details: for competitive antagonism at adenosine receptors in the atria / basal force of contraction in the atria: guinea pig atria
T1 construct: The left atria from male guinea pigs were isolated; from tissue; host or cells: guinea pig left atrium (whole tissue in organ bath)
T1 sequence (P47745 1-326): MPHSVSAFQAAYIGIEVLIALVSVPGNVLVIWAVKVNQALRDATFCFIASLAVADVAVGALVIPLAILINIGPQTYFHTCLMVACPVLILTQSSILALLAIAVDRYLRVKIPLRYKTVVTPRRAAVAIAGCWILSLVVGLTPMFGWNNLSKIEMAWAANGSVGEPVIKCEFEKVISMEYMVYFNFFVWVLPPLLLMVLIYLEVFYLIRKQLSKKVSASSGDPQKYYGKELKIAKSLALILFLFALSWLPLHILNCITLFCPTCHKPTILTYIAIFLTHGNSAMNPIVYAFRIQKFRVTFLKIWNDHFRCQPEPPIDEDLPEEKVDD
Method: The left atria from male guinea pigs were isolated, suspended between two punctate electrodes, and placed in a 20 ml organ bath that contained Krebs-Hensileit solution that was continuously gassed with 95% O2 +5% CO2 and maintained at 31° C. The resting tension was one gram. The atria were stimulated electrically at 1 Hz, 1 msec duration pulses at supramaximal voltage. The force of contraction was recorded isometrically.
(§1) The ability of the compounds to antagonize the effects of agonists was analyzed using modified Schild plots.

[2] = system: rat heart rate and blood pressure; experiment: In vivo rat heart rate and blood pressure
Method: Rats were anesthetized with urethan and blood pressure was monitored via a carotid cannula. Drug injections were made intravenously through a jugular cannula. Blood pressure, EGC, and heart rate were recorded on a Grass polygraph.

[3] = system: rat cortical A1 receptors; experiment: Displacement of [^3 H]-CHA from rat cortical A1 receptors; assay type: binding; details: Table 4
Method: Varying concentrations of test compounds were incubated with the appropriate radioligand and membrane source for 1 hr at room temperature.
Assays were terminated by filtration over Whatman GF/B filters that had been pre-soaked with 0.1% polyethyleneimine using a 24 port Brandell cell hawester. The filters were washed three times with 3 ml of ice cold buffer and transferred to plastic scintillation vials to which 4 ml of Beckman Ready-Protein scintillation cocktail was added. The tubes were shaken and counted in a Beckman 3801 scintillation counter that converted cpm to dpm.
Data were analyzed by utilizing the Ligand commercial computer program (Munson and Rodbard, 1980).
Male Sprague Dawley rats were killed by decapitation and the brains removed. The cerebral cortices were homogenized in 50 mm Tris; 2mm MgCl2 (pH 7.4), and centrifuged at 40,000×g for 10 minutes. […] The homogenate was centrifuged, washed once, resuspended to a protein concentration of 5-10 mg/ml and frozen at -70° C. until use.

[4] = system: A2 adenosine receptors; experiment: Antagonism of adenosine agonists in decreasing contractile tone of guinea pig taenia caecum (A2); details: for antagonism of the effects of adenosine agonists in relaxing the taenia caecum: guinea pig taenia caecum; for selectivity for A1 adenosine receptors: lack of competitive antagonism in taenia caecum
Method: Taenia from the guinea pig caecum were cut into lengths of 1.5-2 cm. The tissues were suspended in a 20 ml organ bath containing de Jalon's solution that was gassed with 95% O2 +5% CO2 and maintained at 31° C. The resting tension was 1.5 g. The contractile response was measured isotonically.
as §1

[5] = system: adenosine receptors; details: cited from earlier work
[6] = system: coronary artery; details: cited from earlier work
[7] = system: patients; details: in vivo; cited from earlier work
[8] = cited from earlier work
[9] = system: A2 receptors; details: vs N^6 -substituted analogs; cited from earlier work
[10] = molecular target: T2, A1 receptors (Rattus norvegicus, UniProt P25099); experiment: Inhibition of N^6 -R-[^3 H]-phenylisopropyladenosine binding in rat brain membranes; design: rat brain membranes; from tissue; host or cells: rat brain (membranes); details: for Ki: (D) Rat Brain Membranes, read-out: Ki vs [^3 H] PIA (Binding), A1 Effects
T2 sequence (P25099 1-326): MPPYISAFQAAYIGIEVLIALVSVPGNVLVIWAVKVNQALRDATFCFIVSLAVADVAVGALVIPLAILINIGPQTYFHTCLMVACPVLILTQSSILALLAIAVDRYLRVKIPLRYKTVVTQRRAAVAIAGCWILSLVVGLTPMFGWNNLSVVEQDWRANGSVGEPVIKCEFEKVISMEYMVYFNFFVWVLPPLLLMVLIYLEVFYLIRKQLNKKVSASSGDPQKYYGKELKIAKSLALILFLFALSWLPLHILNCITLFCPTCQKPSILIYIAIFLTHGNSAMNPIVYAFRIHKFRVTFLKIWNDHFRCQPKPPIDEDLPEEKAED
Method: (§2) For activity at A1 receptors, compounds were tested as inhibitors of the binding of N^6 -R-[^3 H]-Phenylisopropyladenosine in rat brain membranes and for their ability to prevent R-PIA-induced inhibition of adenylate cyclase in rat fat cell membranes.

[11] = molecular target: T3, A2 receptors (Homo sapiens, UniProt P29274); experiment: Antagonism of NECA-stimulated adenylate cyclase in human platelet membranes; assay type: biochemical
T3 construct: membranes of human platelets; from tissue; host or cells: human platelets (membranes)

[12] = molecular target: T2, A1 receptors; experiment: Prevention of R-PIA-induced inhibition of adenylate cyclase in rat fat cell membranes; assay type: biochemical
Method: as §2

[13] = molecular target: T4, A2 receptors (Rattus norvegicus, UniProt P30543); experiment: Antagonism of NECA-stimulated adenylate cyclase in rat PC12 membranes; assay type: biochemical; details: read-out: KB vs NECA Stimulation (Adenylate Cyclase), A2 Effects; (B) Rat PC12 Membranes
T4 construct: NECA-stimulated adenylate cyclase
Method: For activity at A1 receptors, compounds were tested as inhibitors of the binding of N^6 -R-[^3 H]-Phenylisopropyladenosine in rat brain membranes and for their ability to prevent R-PIA-induced inhibition of adenylate cyclase in rat fat cell membranes. For activity at A2 receptors, compounds were tested as antagonists of NECA-stimulated adenylate cyclase in membranes of human platelets and rat PC12 cells.

[14] = anesthetized rats, high doses of adenosine
[15] = prior administration, NECA as agonist

T3 sequence (P29274 whole entry): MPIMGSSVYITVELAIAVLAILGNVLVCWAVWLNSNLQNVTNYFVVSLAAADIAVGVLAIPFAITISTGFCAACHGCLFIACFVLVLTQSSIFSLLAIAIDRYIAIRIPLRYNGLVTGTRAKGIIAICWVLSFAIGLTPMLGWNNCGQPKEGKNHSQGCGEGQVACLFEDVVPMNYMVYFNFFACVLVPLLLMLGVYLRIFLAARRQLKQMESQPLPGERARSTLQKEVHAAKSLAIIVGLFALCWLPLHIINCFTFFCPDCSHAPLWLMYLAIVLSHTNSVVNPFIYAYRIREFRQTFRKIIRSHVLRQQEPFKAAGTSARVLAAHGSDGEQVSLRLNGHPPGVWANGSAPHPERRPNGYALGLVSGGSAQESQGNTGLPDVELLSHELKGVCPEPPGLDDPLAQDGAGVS
T4 sequence (P30543 whole entry): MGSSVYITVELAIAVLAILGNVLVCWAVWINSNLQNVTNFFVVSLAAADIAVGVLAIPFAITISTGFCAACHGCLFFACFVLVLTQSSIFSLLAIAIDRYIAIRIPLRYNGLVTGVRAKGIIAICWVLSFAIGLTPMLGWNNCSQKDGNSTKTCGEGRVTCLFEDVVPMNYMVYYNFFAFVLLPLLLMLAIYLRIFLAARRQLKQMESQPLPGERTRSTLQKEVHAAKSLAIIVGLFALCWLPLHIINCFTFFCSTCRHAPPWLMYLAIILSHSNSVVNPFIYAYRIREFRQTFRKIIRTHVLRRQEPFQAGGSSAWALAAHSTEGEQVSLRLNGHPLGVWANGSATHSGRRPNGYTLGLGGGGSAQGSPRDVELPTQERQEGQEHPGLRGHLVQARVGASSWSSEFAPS

Compound: Cn1cnc2c(N[C@H]3C[C@H]4CC[C@@H]3C4)ncnc21 (relative stereo) [compound 0861, N^6-(endo-2-norbornyl)-9-MA]
- selectivity towards the A1 adenosine receptor / rank of potency ([1]; Table 2 compounds): the most potent antagonist
- competitive antagonism at adenosine receptors in the atria [1]: competitive antagonists
- effects of subsequently administered adenosine on all parameters (blood pressure, heart rate, P-R interval) ([2]; anesthetized rats, antagonist given before adenosine): attenuated the effects of subsequently administered adenosine on all parameters measured
- adenosine-induced heart block [2, 14]: substantially reduced
- NECA-induced decrease in blood pressure [2, 15]: minimally affecting the NECA-induced decrease in blood pressure
- effects of NECA on the heart [2, 15]: attenuated the effects of NECA on the heart
- selectivity in vivo ([2]; rat): cardioselective adenosine receptor antagonist in vivo
- selectivity for A1 receptors over A2 receptors [3]: 170 fold
- A1 /A2 ([3]; ratio of Ki values): 5.89 × 10^-3
- antagonism of the effects of adenosine agonists in relaxing the taenia caecum [4]: did not competitively antagonize
- selectivity for A1 adenosine receptors [4]: selective for A1 adenosine receptors

Compound: Cn1c(=O)c2[nH]c(-c3ccccc3)nc2n(C)c1=O [8-phenyltheophylline (8-PT), 8-phenyltheophylline, reference compound]
- receptor selectivity [5]: non-selective adenosine receptor antagonist
- antagonism of the effects of adenosine agonists in relaxing the taenia caecum [4]: did antagonize the effects of agonists at low concentrations
- sensitization of the tissue ([4]; high concentrations, larger response to agonist): Sensitization is also observed when using high concentrations

Compound: Nc1ncnc2c1ncn2[C@@H]1O[C@H](CO)[C@@H](O)[C@H]1O [Adenosine, reference compound]
- heart rate, ventilation and airway resistance [6]: increases heart rate, and stimulates ventilation but does not alter airway resistance
- vasodilation / coronary blood flow [6]: potent vasodilator, except in the kidney
- heart block [2, 14]: At high doses, adenosine causes heart block
- P-R interval of the ECG ([2]; anesthetized rats, intravenous): concomitant increase in the P-R interval
- blood pressure ([2]; anesthetized rats, intravenous): dose dependent decrease in blood pressure
- heart rate ([2]; anesthetized rats, intravenous): dose dependent decrease in blood pressure and heart rate
- side effects [7]: a number of cardiovascular, respiratory, central nervous system, and gastrointestinal side effects
- half-life ([8]; in vivo): less than two

Compound: OCCN(CCO)c1nc(N2CCCCC2)c2nc(N(CCO)CCO)nc(N3CCCCC3)c2n1 [Dipyridamole, dipyridamole]
- vasodilation / coronary blood flow [6]: increase in coronary blood flow
- side effects [7]: rare but potentially serious side effects which include myocardial ischemia, cardiac arrhythmia, and sudden death
- half-life compared with adenosine ([8]; dipyridamole): significantly longer half-life

Compound: CCNC(=O)[C@H]1O[C@@H](n2cnc3c(N)ncnc32)[C@H](O)[C@@H]1O [NECA, 5'-N-ethylcarboxamido-adenosine]
- potency at A2 receptors [9]: more potent than N^6 -substituted analogs

Compound: Cn1cnc2c(NC3CCCCC3)ncnc21 [N^6 -Cyclohexyl-9-MA]
- Ki [10]: 0.94 µM

Compound: CCC(Cc1cccs1)Nc1ncnc2c1ncn2C (stereo not drawn) [N^6-1-(2-thienyl)-2-butyl-9-MA]
- basal force of contraction in the atria [1]: increases in basal force of contraction
- competitive antagonism at adenosine receptors in the atria [1]: competitive antagonists

Compound: CCC(CC)Nc1ncnc2c1ncn2C [N^6-3-Pentyl-9-MA]
- basal force of contraction in the atria [1]: increases in basal force of contraction
- competitive antagonism at adenosine receptors in the atria [1]: competitive antagonists
- antagonism of the effects of adenosine agonists in relaxing the taenia caecum [4]: did not competitively antagonize
- selectivity for A1 adenosine receptors [4]: selective for A1 adenosine receptors

Compound: Cn1c(=O)c2c(ncn2C)n(C)c1=O [caffeine]
- antagonism at adenosine receptors [5]: best known antagonists at adenosine receptors

Compound: Cn1cnc2c(NC3CCCC3)ncnc21 [compound 0840, N^6-cyclopentyl-9-MA]
- competitive antagonism at adenosine receptors in the atria [1]: competitive antagonists
- potency relative to 9-methyladenine at A2 receptors ([11]; human platelet assay): fivefold more potent
- Ki [10]: 0.54 µM
- potency relative to 9-methyladenine at A1 receptors ([10]; A1 receptors): at least 100 fold
- antagonism of the effects of adenosine agonists in relaxing the taenia caecum [4]: did not competitively antagonize
- selectivity for A1 adenosine receptors [4]: selective for A1 adenosine receptors

Compound: C[C@@H](Cc1ccccc1)Nc1ncnc2c1ncn2C [compound 0986, N^6 -S-1-phenyl-2-propyl-9-MA]
- Kb [12]: 23 µM

Compound: N^6 -Methylcylopentyl-9-MA
- Kb [13]: 56 µM
- Kb ([11]; read-out: KB vs NECA Stimulation (Adenylate Cyclase), A2 Effects, (A) Human Platelet Membranes): 45 µM
- Ki [10]: 2.5 µM
- Kb ([12]; (C) Rat Fat Cell Membranes, read-out: KB vs PIA INHIBITION (Adenylate Cyclase), A1 Effects): 9 µM
